Some results are limits rather than exact numbers.

These results are taken from patent US8951964B2, “Phenanthridine macrocyclic hepatitis C serine protease inhibitors” (priority 2010, dated 2015).

What all share (assay type): cell-based, HCV
For test [1], the system named is genotype 1a transient replicon (1a-H77). Nature of the test: 1a transient replicon (luciferase reporter). Conditions: Hepatitis C virus, HuH-7 cells, 5% FBS. (A replicon is a self-replicating genome or part of one, used to study replication in cells.)
In test [2] the test system is genotype 1b replicon (1b-Con1, 1b-N). Nature of the test: 1b stable replicon (luciferase reporter). Conditions: Hepatitis C virus, HuH-7 cells, 5% FBS.
The subject of test [3] is genotype 1a replicon (1a-H77). Nature of the test: 1a stable replicon (luciferase reporter). To be noted: Hepatitis C virus, Huh-7, luciferase reporter, HuH-7 cells, 5% FBS.
Test [4] deals with genotype 3a NS3 gene in transient replicon. Nature of the test: 3a transient replicon (luciferase reporter). To be noted: Hepatitis C virus, Huh-7, read-out: 3a transient replicon (nM).
Test [5] concerns genotype 1b transient replicon. Nature of the test: 1b transient replicon (luciferase reporter). To be noted: Hepatitis C virus, HuH-7 cells, 5% FBS.

For `Cc1cc(C(=O)N[C@H]2CCCCC/C=C\[C@@H]3C[C@@]3(C(=O)NS(=O)(=O)C3(C)CC3)NC(=O)[C@@H]3C[C@@H](Oc4nc5cc(F)ccc5c5ccccc45)CN3C2=O)no1`, the EC50 in test [1] was under 100 pM; in test [2], 100 to 500 pM; in test [3] it was 100 to 500 pM; in test [4] it was over 1 nM; in test [5] it was 100 to 500 pM.
In the case of `CC1(S(=O)(=O)NC(=O)[C@@]23C[C@H]2/C=C\CCCCC[C@H](NC(=O)c2cscn2)C(=O)N2C[C@H](Oc4nc5cc(F)ccc5c5cc(F)ccc45)C[C@H]2C(=O)N3)CC1`, the EC50 was under 100 pM in test [1]; 100 to 500 pM in test [2]; 500 to 1000 pM in test [3]; over 1 nM in test [4]; 100 to 500 pM in test [5].
Take `CC1(S(=O)(=O)NC(=O)[C@@]23C[C@H]2/C=C\CCCCC[C@H](NC(=O)c2cncs2)C(=O)N2C[C@H](Oc4nc5cc(F)ccc5c5cc(F)ccc45)C[C@H]2C(=O)N3)CC1`: the EC50 in test [1] was under 100 pM; in test [2], 100 to 500 pM; in test [3], over 1000 pM; in test [4] it was over 1 nM; in test [5], 100 to 500 pM.
In the case of `CC1(S(=O)(=O)NC(=O)[C@@]23C[C@H]2/C=C\CCCCC[C@H](NC(=O)c2cscn2)C(=O)N2C[C@H](Oc4nc5ccccc5c5cc(F)ccc45)C[C@H]2C(=O)N3)CC1`, the EC50 in test [1] is 100 to 500 pM; in test [2], 100 to 500 pM; in test [3], 500 to 1000 pM; in test [4], over 1 nM; in test [5], 100 to 500 pM.
On to `CC1(S(=O)(=O)NC(=O)[C@@]23C[C@H]2/C=C\CCCCC[C@H](NC(=O)c2cncs2)C(=O)N2C[C@H](Oc4nc5ccccc5c5cc(F)ccc45)C[C@H]2C(=O)N3)CC1`, for which the EC50 in test [1] is under 100 pM; in test [2], 100 to 500 pM; in test [3], 500 to 1000 pM; in test [4], over 1 nM; in test [5], 100 to 500 pM.
Take `CC1(S(=O)(=O)NC(=O)[C@@]23C[C@H]2/C=C\CCCCC[C@H](NC(=O)c2ccns2)C(=O)N2C[C@H](Oc4nc5cc(F)ccc5c5ccccc45)C[C@H]2C(=O)N3)CC1`: the EC50 was under 100 pM in test [1]; 100 to 500 pM in test [2]; 500 to 1000 pM in test [3]; over 1 nM in test [4]; 100 to 500 pM in test [5].
In the case of `CC1(S(=O)(=O)NC(=O)[C@@]23C[C@H]2/C=C\CCCCC[C@H](NC(=O)c2ccon2)C(=O)N2C[C@H](Oc4nc5cc(F)ccc5c5ccccc45)C[C@H]2C(=O)N3)CC1`, the EC50 in test [1] is under 100 pM; in test [2] it was 100 to 500 pM; in test [3] it was 100 to 500 pM; in test [4], 0.5 to 1 nM; in test [5], 100 to 500 pM.
Take `CC1(S(=O)(=O)NC(=O)[C@@]23C[C@H]2/C=C\CCCCC[C@H](NC(=O)[C@@H](O)C(F)(F)F)C(=O)N2C[C@H](Oc4nc5cc(F)ccc5c5ccccc45)C[C@H]2C(=O)N3)CC1`: the EC50 is under 100 pM in test [1]; 100 to 500 pM in test [2]; 500 to 1000 pM in test [3]; over 1 nM in test [4]; 100 to 500 pM in test [5].
With `Cc1ccc(C(=O)N[C@H]2CCCCC/C=C\[C@@H]3C[C@@]3(C(=O)NS(=O)(=O)C3(C)CC3)NC(=O)[C@@H]3C[C@@H](Oc4nc5cc(F)ccc5c5ccccc45)CN3C2=O)o1`, the EC50 in test [1] is 100 to 500 pM; in test [2], 100 to 500 pM; in test [3], 500 to 1000 pM; in test [4], under 1 nM; in test [5], 100 to 500 pM.
For the compound `COc1ccc2c(c1)nc(O[C@@H]1C[C@H]3C(=O)N[C@]4(C(=O)NS(=O)(=O)C5(C)CC5)C[C@H]4/C=C\CCCCC[C@H](NC(=O)c4cc(C)on4)C(=O)N3C1)c1ccccc12`, the EC50 in test [1] was under 100 pM; in test [2], 100 to 500 pM; in test [3], 100 to 500 pM; in test [4], over 1 nM; in test [5] it was 100 to 500 pM.
As for `Cc1ccc(C(=O)N[C@H]2CCCCC/C=C\[C@@H]3C[C@@]3(C(=O)NS(=O)(=O)C3(C)CC3)NC(=O)[C@@H]3C[C@@H](Oc4nc5cc(F)ccc5c5ccccc45)CN3C2=O)s1`, the EC50 was 100 to 500 pM in test [1]; 100 to 500 pM in test [2]; 500 to 1000 pM in test [3]; under 1 nM in test [4]; 100 to 500 pM in test [5].
